According to paper PMC9144807, “Fluorine-18 Labeled Urea-Based Ligands Targeting Prostate-Specific Membrane Antigen (PSMA) with Increased Tumor and Decreased Renal Uptake” (Pharmaceuticals, 2022):
Where “and” joins values, the source holds several entries; their conditions need not be identical. Equal entries are not always repeated. Where two headings read alike, the source gives them in different places.

Key:
PSMA = target: T1, PSMA (Homo sapiens, UniProt Q04609); experiment: In vitro saturation binding assay with PC3(+) tumor membrane preparations; conditions: saturation assays, mean (SE), n = 3–5
T1 construct: expressed in transfected cells; host or cells: PC3(+) (PC3 human prostate cancer cells transfected with human PSMA), grown as xenograft tumors in athymic mice; tumor membrane preparations
Description: (§1) PC3(−) (wildtype human prostate cancer cell line, PSMA negative) and PC3(+) (transfected with human PSMA) were provided by Dr. Hisataka Kobayashi. Cell lines were grown at 37 °C in 5% CO2 in RPMI-1640 supplemented with 10% FBS, 2 mM L-glutamine and Pen/Strep/Amphotericin B. PC3(+) and PC3(−) cell suspensions [2 × 10^6 cells; PBS:Matrigel (70:30)] from in vitro cell culture were subcutaneously implanted (right shoulder) into athymic mice (Athymic NCr- nu/nu, Charles River Laboratory, 4 weeks old) for use as positive and negative controls, respectively, for in vitro or in vivo studies. When tumors reached the appropriate size (>100 mg) the xenograft mice were used for in vivo biodistributions and imaging studies or the tumors were excised and further processed to obtain membrane preparations for in vitro assays as described previously.
In vitro saturation studies were performed to determine binding affinities (Kd) and PSMA expression levels (Bmax) using tumor membrane preparations from PC3(−) and PC3(+) PSMA xenografts (human prostate cancer cell line transfected with human PSMA; PC3(+)). […] Filter papers were collected, and the radioactive content was quantified by gamma counting (PerkinElmer 2480 Wizard3). […] Aliquots of each membrane preparation were taken for the determination of the protein concentration (Bradford method).

PC3(+) xenografts [1] = experiment: Blocking biodistribution study in PC3(+) xenografts, coinjection of non-radioactive DCFPyL; format: in vivo, mice; conditions: 60 min, coinjection of DCFPyL 1000×
Description: (§2) Tumor-bearing mice (tumor weights: 0.1–0.8 g) were injected while awake via the tail vein with each of the tracers [0.74–3.7 MBq (20 to 100 µCi), 10 to 80 pmol] and euthanized (via CO2 inhalation) at selected times. […] Blood samples and tissues were excised from each animal, weighed, and radioactivity content was determined (Perkin Elmer 2480 Wizard3). Radioactivity content in the blood and each tissue was expressed as % injected dose per gram of tissue [%ID/g; (Formula (1))] and then normalized for body weight to a 20 g mouse (Formula (2)) from which Tissue:Muscle ratios [T:M; (Formula (3))] were determined as follows:(1) %ID/g =[counts per minute cpmtissue / tissue weight g]×100/cpmtotal injected dose
(§3) %ID/g (normalized to a 20 g mouse) = (%ID/g) × (body weight/20 g)(2)
(§4) (3) T:M=%ID/gtissue/%ID/gmuscle

PC3(−) xenografts = experiment: In vivo biodistribution in PC3(−) xenograft mice (negative control); conditions: 60 min; mean ± SE, n = 8–10
Description: as §1, §2, §3, §4

PC3(+) xenografts [2] = experiment: In vivo biodistribution in PC3(+) xenograft mice; set-up: key to salivary gland T:M / Femur T:M / Blood T:M / Kidney T:M / Liver T:M: T:M = (%ID/g in tissue) / (%ID/g in muscle); conditions: for Radioactivity in the blood: 60 min (Figure 5A)
Description: as §1, §2, §3, §4

[3] = Fraction of intact tracer (parent) in blood and kidney by TLC; format: in vivo, mice; conditions: for %Parent compound in blood (TLC analysis): 60 min; for tissue uptake at 0.25 h: 15 min post-injection; for tissue uptake at 0.5 h: 30 min post-injection; for tissue uptake at 2 h: 120 min post-injection
Excerpt: In some cases, additional blood samples and/or tissue samples after gamma counting were taken for determining the fraction of intact radiolabeled tracer (parent) using thin-layer chromatography (TLC). For these TLC determinations: tissues were placed in equal volumes of acetonitrile and homogenized, or serum was obtained from the blood samples and mixed with an equal volume of acetonitrile. Following centrifugation of the samples, supernatants were collected and the radioactive content of the supernatants and pellets were determined. The supernatants were then applied to thin-layer chromatography (TLC) plates. The TLC plates were developed [solvent system: ethyl acetate (80%), methanol (10%) and acetic acid (10%)], and exposed on a phosphorimaging plate which was scanned the next day.

[4] = test system: PC3(+) tumor xenograft mice; experiment: Small animal PET imaging with ROI analysis, PC3(+) tumor xenograft mice; format: in vivo; conditions: 60 min post-injection
Description: Tumor-bearing mice were anesthetized with isoflurane/O2 (1.5–3% v/v) and imaged at various times after intravenous injection of each tracer [2.6 to 3.7 MBq (70 to 100 µCi)]. Whole body static PET images were obtained at 2 bed positions (FOV = 2.0 cm, total imaging time: 10 min) using a BioPET scanner (Bioscan Inc., Washington, DC, USA). The images were reconstructed by a 3-dimensional ordered-subsets expectation maximum (3D-OSEM).

[5] = 15 min post-injection, mean ± SE
[6] = 30 min post-injection, mean ± SE
[7] = 60 min post-injection, mean ± SE
[8] = 120 min post-injection, mean ± SE
[9] = mouse, blood, intravenous, mean ± SE, read-out: Blood uptake, parent (corrected for metabolites)
[10] = mouse, kidney, intravenous, mean ± SE, read-out: Kidney uptake, parent (corrected for metabolites)

T1 sequence (Q04609 whole entry): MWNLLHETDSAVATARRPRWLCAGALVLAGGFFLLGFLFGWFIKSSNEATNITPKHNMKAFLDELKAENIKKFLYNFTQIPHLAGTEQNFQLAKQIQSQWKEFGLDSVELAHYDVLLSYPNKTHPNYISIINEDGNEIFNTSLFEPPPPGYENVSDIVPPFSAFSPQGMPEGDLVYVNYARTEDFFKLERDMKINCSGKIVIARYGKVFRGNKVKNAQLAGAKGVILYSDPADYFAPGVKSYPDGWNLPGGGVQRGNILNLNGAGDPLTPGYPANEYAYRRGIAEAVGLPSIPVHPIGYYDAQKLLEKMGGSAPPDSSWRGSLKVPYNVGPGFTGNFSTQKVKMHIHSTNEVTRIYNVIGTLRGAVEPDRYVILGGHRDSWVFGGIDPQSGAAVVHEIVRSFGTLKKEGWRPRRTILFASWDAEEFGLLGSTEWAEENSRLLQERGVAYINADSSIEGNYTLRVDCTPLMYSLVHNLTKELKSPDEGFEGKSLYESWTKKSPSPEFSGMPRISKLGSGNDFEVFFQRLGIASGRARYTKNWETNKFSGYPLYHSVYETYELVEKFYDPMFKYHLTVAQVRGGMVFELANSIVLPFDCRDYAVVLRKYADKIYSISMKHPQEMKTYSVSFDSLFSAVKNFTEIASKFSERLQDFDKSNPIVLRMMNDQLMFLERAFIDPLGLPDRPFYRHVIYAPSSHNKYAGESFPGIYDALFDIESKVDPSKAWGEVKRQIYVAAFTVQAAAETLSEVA

## O=C(O)CC[C@H](NC(=O)N[C@@H](CCCCNC(=O)CCCCCO/N=C\c1ccc([18F])nc1)C(=O)O)C(=O)O [[^18F]2b]
PSMA
  Kd: 0.489 nM
PC3(+) xenografts [1]
  decrease of PC3(+) tumor T:M in blocked group compared to non-blocked group: 85%
PC3(−) xenografts
  PC3(−) Tumor T:M: 1.65 ± 0.20
PC3(+) xenografts [2]; 60 min
  decrease of PC3(+) tumor T:M compared to [18F]DCFPyL: 27%
  decrease of blood radioactivity compared to [18F]DCFPyL: 27%
PC3(+) xenografts [2]
  Radioactivity in the blood: 0.377 %ID/g
PC3(+) xenografts [2]; 60 min, mean ± SE, n = 8–10
  Blood T:M: 2.04 ± 0.11
  Femur T:M: 2.00 ± 0.18
  Kidney T:M: 814.2 ± 71.9
  Liver T:M: 44.6 ± 3.8
  PC3(+) Tumor T:M: 90 and 89.9 ± 7.6
[3]; mean ± SD, n = 2–5
  %Parent compound in blood (TLC analysis): 78.8 ± 2.6%

## O=C(O)CC[C@H](NC(=O)N[C@@H](CCCCNC(=O)CCCCCO/N=C\c1ccc([18F])cc1)C(=O)O)C(=O)O [[^18F]2a]
PSMA
  Kd: 0.362 nM
[4]
  PC3(+) tumor uptake from ROI analysis of PET images: 14 %ID/g
  increase of liver uptake compared to [18F]DCFPyL (PET ROI): ~ 10 fold
  kidney uptake from ROI analysis of PET images: 98 %ID/g
  liver uptake from ROI analysis of PET images: 29 %ID/g
  reduction of kidney uptake compared to [18F]DCFPyL (PET ROI): ~ 50%
PC3(+) xenografts [1]
  decrease of PC3(+) tumor T:M in blocked group compared to non-blocked group: 48%
PC3(−) xenografts
  PC3(−) Tumor T:M: 1.42 ± 0.13
PC3(+) xenografts [2]; [5]
  Blood uptake, total radioactivity: 4.83 ± 0.57 %ID/g
  Kidney uptake, total radioactivity: 62.2 ± 3.4 %ID/g
PC3(+) xenografts [2]; [6]
  Blood uptake, total radioactivity: 2.47 ± 0.18 %ID/g
  Kidney uptake, total radioactivity: 78.4 ± 9.1 %ID/g
PC3(+) xenografts [2]; 60 min
  decrease of PC3(+) tumor T:M compared to [18F]DCFPyL: 40%
  increase of blood radioactivity vs. [18F]DCFPyL: 1.6 fold
  increase of liver T:M compared to [18F]DCFPyL: 6.8 fold
PC3(+) xenografts [2]; 60 min, p < 0.0001
  decrease of kidney T:M compared to [18F]DCFPyL: 55%
PC3(+) xenografts [2]; 60 min, mean ± SE, n = 8–10
  Blood T:M: 2.85 ± 0.15
  Femur T:M: 0.73 ± 0.04
  Kidney T:M: 314.8 ± 8.3
  Liver T:M: 66.9 ± 4.2
  PC3(+) Tumor T:M: 74 and 73.9 ± 5.8
PC3(+) xenografts [2]; [7]
  Blood uptake, total radioactivity: 0.77 ± 0.10 %ID/g
  Kidney uptake, total radioactivity: 75.8 ± 6.3 %ID/g
PC3(+) xenografts [2]; [8]
  Blood uptake, total radioactivity: 0.37 ± 0.03 %ID/g
  Kidney uptake, total radioactivity: 87.8 ± 5.1 %ID/g
PC3(+) xenografts [2]; all times 15 to 120 min
  Femur uptake: < 1 %ID/g
PC3(+) xenografts [2]; all times except 120 min
  Femur T:M: < 1.8
PC3(+) xenografts [2]; at 30 and 60 min
  decrease of tumor T:M compared to [18F]DCFPyL tumor T:M: ~ 2 fold
PC3(+) xenografts [2]; mouse, in vivo
  increase in tumor T:M from 15 to 120 min: ~ 14 fold
  increase of tumor retention (%ID/g) from 15 to 120 min: 1.4 fold
[3]; mean ± SD, n = 2–5
  %Parent compound in blood (TLC analysis): 84.8 ± 0.6%
[3]; 120 min
  increase of parent kidney uptake compared to [18F]DCFPyL: 4 fold
[3]; [9]
  tissue uptake at 0.25 h: 4.1 ± 0.49 %ID/g
  tissue uptake at 0.5 h: 2.08 ± 0.15 %ID/g
  tissue uptake at 2 h: 0.31 ± 0.03 %ID/g
[3]; [10]
  tissue uptake at 0.25 h: 11.8 ± 0.64 %ID/g
  tissue uptake at 0.5 h: 22.7 ± 1.73 %ID/g
  tissue uptake at 2 h: 13 ± 0.98 %ID/g
[3]; mouse, kidney, intravenous, 60 min post-injection, mean ± SE, read-out: Kidney uptake, parent (corrected for metabolites)
  tissue uptake at 1 h: 15.6 ± 1.19 %ID/g
[3]; nude, mouse, in vivo
  % of parent in blood: 85-83
  % of parent in kidney: 29-15
  %Parent compound in blood (TLC analysis): 85%

## O=C(O)CC[C@H](NC(=O)N[C@@H](CCCCNC(=O)CO/N=C\c1ccc([18F])nc1)C(=O)O)C(=O)O [[^18F]1b]
PSMA
  Kd: 0.458 nM
PC3(−) xenografts
  PC3(−) Tumor T:M: 1.43 ± 0.29
PC3(+) xenografts [2]; 60 min
  decrease of blood radioactivity compared to [18F]DCFPyL: 40%
  increase of PC3(+) tumor T:M compared to [18F]DCFPyL: 1.6 fold
  increase of kidney T:M compared to [18F]DCFPyL: 1.4 fold
PC3(+) xenografts [2]
  Radioactivity in the blood: 0.309 %ID/g
PC3(+) xenografts [2]; 60 min, mean ± SE, n = 8–10
  Blood T:M: 2.26 ± 0.22
  Femur T:M: 1.80 ± 0.17
  Kidney T:M: 1013 ± 34
  Liver T:M: 24.9 ± 2.0
  PC3(+) Tumor T:M: 204 and 203.7 ± 34.5
[3]; mean ± SD, n = 2–5
  %Parent compound in blood (TLC analysis): 74.4 ± 7.6%
